Measurements as given in ChEMBL document CHEMBL2396648, “Potent suppression of c-di-GMP synthesis via I-site allosteric inhibition of diguanylate cyclases with 2'-F-c-di-GMP” (Bioorg Med Chem, 2013).
pIC50, pKi: −log10 of the molar value. Active and inactive are the calls of the source. No cut-off for these calls is given here.

How the values were obtained:
[1] = Competitive binding affinity to Pseudomonas aeruginosa WspR after 5 mins in presence of [32P]-c-di-GMP
[2] = Competitive binding affinity to Pseudomonas aeruginosa Alg44 PilZ domain after 5 mins in presence of [32P]-c-di-GMP
[3] = target: T1, Cyclic di-GMP phosphodiesterase RocR (Pseudomonas aeruginosa (strain ATCC 15692 / PAO1 / 1C / PRS 101 / LMG12228), UniProt Q9HX69); test: Competitive binding affinity to Pseudomonas aeruginosa PAO1 His6-tagged RocR expressed in Escherichia coli BL21 (DE3) after 5 mins in presence of [32P]-c-di-GMP
T1 sequence (Q9HX69 whole entry): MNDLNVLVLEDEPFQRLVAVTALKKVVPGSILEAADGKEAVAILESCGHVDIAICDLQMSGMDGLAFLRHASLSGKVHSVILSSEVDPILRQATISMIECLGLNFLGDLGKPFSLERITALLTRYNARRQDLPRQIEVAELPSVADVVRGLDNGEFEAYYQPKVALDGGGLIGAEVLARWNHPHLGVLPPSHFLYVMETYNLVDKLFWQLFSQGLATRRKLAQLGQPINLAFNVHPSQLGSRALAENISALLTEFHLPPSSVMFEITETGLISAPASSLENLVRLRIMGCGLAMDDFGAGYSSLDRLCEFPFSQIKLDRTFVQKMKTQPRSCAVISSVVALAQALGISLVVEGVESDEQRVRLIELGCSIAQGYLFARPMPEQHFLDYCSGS

[4] = system: Pseudomonas aeruginosa PA14; test: Inhibition of Pseudomonas aeruginosa PA14 diguanylate cyclase PA1107 using [32P]-GTP as substrate at 100 uM after 120 mins by thin layer chromatographic analysis
[5] = system: Pseudomonas aeruginosa PA14; test: Inhibition of Pseudomonas aeruginosa PA14 PvrR using [32P]-GTP as substrate at 100 uM after 120 mins by thin layer chromatographic analysis
[6] = target: T2, Cyclic di-GMP phosphodiesterase RocR (Pseudomonas aeruginosa (strain ATCC 15692 / PAO1 / 1C / PRS 101 / LMG12228)) (UniProt Q9HX69); test: Inhibition of Pseudomonas aeruginosa PAO1 His6-tagged RocR expressed in Escherichia coli BL21 (DE3) using [32P]-GTP as substrate at 100 uM after 120 mins by thin layer chromatographic analysis
T2 sequence (whole entry): T1 sequence (Q9HX69 whole entry)

Pseudomonas aeruginosa = test: Inhibition of Pseudomonas aeruginosa WspR using [32P]-GTP as substrate at 100 uM after 120 mins by thin layer chromatographic analysis
[7] = Allosteric inhibition of Pseudomonas aeruginosa WspR using [32P]-GTP as substrate measured for 1 hr by thin layer chromatographic analysis

Row | pIC50 [1] | pIC50 [2] | pIC50 [3] | inhibition [4] | inhibition [5] | inhibition [6] | inhibition (Pseudomonas aeruginosa) | pKi [7] | Compound
1 | < 4.00 | 4.87 | 7.70 | – | – | – | – | – | Nc1nc2c(ncn2[C@H]2C[C@@H]3OP(=O)(O)OC[C@H]4O[C@@H](n5cnc6c(=O)[nH]c(N)nc65)C[C@@H]4OP(=O)(O)OC[C@H]3O2)c(=O)[nH]1
2 | < 4.00 | < 4.00 | 5.19 | – | – | – | – | – | CO[C@@H]1[C@@H]2OP(=O)(O)OC[C@H]3O[C@@H](n4cnc5c(=O)[nH]c(N)nc54)[C@H](OC)[C@@H]3OP(=O)(O)OC[C@H]2O[C@H]1n1cnc2c(=O)[nH]c(N)nc21
3 | 4.96 | 5.51 | 6.14 | Active | inactive | Active | Active | 4.90 | Nc1nc2c(ncn2[C@@H]2O[C@@H]3COP(=O)(O)O[C@H]4[C@@H](F)[C@H](n5cnc6c(=O)[nH]c(N)nc65)O[C@@H]4COP(=O)(O)O[C@H]3[C@H]2F)c(=O)[nH]1
4 | 4.31 | 5.11 | – | Active | inactive | Active | Active | 4.81 | Nc1nc2c(ncn2[C@@H]2O[C@@H]3COP(=O)(O)O[C@H]4[C@@H](O)[C@H](n5cnc6c(=O)[nH]c(N)nc65)O[C@@H]4COP(=O)(O)O[C@H]3[C@H]2O)c(=O)[nH]1
5 | – | – | 7.70 | – | – | – | – | – | Nc1nc2c(ncn2[C@@H]2O[C@@H]3CO[P@](=O)(O)O[C@H]4[C@@H](O)[C@H](n5cnc6c(=O)[nH]c(N)nc65)O[C@@H]4CO[P@](=O)(O)O[C@H]3[C@H]2O)c(=O)[nH]1
